Reference: PubChem BioAssay (NCI)
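In this assay, cells in 96-well plates receive the compound at five concentrations for 48 hours. Endpoints are linearly interpolated between the surrounding concentrations. GI50: concentration for 50% inhibition of growth. TGI denotes the concentration required for complete inhibition of growth.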

Key:
Experiment in all cases: inhibition of tumour cell growth, NCI panel, 48 h
[1] = test system: CAKI-1 renal
[2] = test system: DU-145 prostate
[3] = test system: IGROV1 ovarian
[4] = test system: SF-268 CNS
[5] = test system: HS 578T breast
[6] = test system: HCT-116 colon
[7] = test system: UO-31 renal
[8] = test system: SR leukemia
[9] = test system: EKVX NSCLC
[10] = test system: PC-3 prostate

SMILES	GI50 [1]	TGI [1]	GI50 [2]	TGI [2]	GI50 [3]	TGI [3]	GI50 [4]	TGI [4]	GI50 [5]	TGI [5]	GI50 [6]	TGI [6]	GI50 [7]	TGI [7]	GI50 [8]	TGI [8]	GI50 [9]	TGI [9]	GI50 [10]	TGI [10]
COC(=O)c1cc(-c2cc(OC)c(OC)c(OC)c2)[nH]c1N/N=C/c1c(Cl)cccc1Cl	1.61 µM	11.4 µM	1.85 µM	16.3 µM	2.48 µM	16.8 µM	1.35 µM	11.2 µM	1.15 µM	> 27 µM	1.11 µM	> 33 µM	0.837 µM	4.51 µM	0.926 µM	> 100 µM	8.72 µM	52.9 µM	0.893 µM	
COc1ccc(C(=O)/C=C/c2c(C(F)(F)F)nc3sccn23)cc1OC	2.46 µM	> 100 µM	1.64 µM	5 µM	3.15 µM	> 100 µM	3.44 µM	> 100 µM	2.51 µM	16.8 µM	1.4 µM	68.7 µM	8.47 µM	> 100 µM	0.493 µM	> 100 µM	4.43 µM	> 100 µM	5.39 µM	> 100 µM
COc1cc2c3c(n(CCCNCC(OC)OC)c(=O)c2cc1OC)-c1cc2c(cc1C3=O)OCO2	0.219 µM	17.2 µM	0.399 µM	13.7 µM	10.3 µM	> 74.4 µM	1.05 µM	> 55.1 µM	10.4 µM	> 29.3 µM	0.0172 µM	1.31 µM	2.13 µM	22.5 µM	< 0.01 µM		15.7 µM	> 57.3 µM	2.35 µM	40.6 µM
C=C(C)[C@@H]1CC[C@]2(C(=O)NCCNCCNCCN)CC[C@]3(C)[C@H](CC[C@@H]4[C@@]5(C)CC[C@H](O)C(C)(C)[C@@H]5CC[C@]43C)[C@@H]12	5.92 µM	20.1 µM	14.1 µM	30.1 µM	16.1 µM	32.5 µM	13.5 µM	32.3 µM	20.1 µM	66.7 µM	4.4 µM	18.7 µM	11.7 µM	24.7 µM	6.76 µM	> 100 µM	10.5 µM	26.6 µM	2.95 µM	18.6 µM
C=CCNCCCN1C(=O)c2ccc3c4c(ccc(c24)C1=O)C(=O)N(CCCNCC=C)C3=O	0.34 µM	1.97 µM	0.311 µM	0.857 µM	0.325 µM	1.2 µM	0.557 µM	4.41 µM	1.3 µM	5.16 µM	0.279 µM	3.39 µM	0.327 µM	2.29 µM	0.407 µM	2.08 µM	0.295 µM	1.09 µM	0.589 µM	11 µM
CCc1cccc2c3c(sc12)C(c1ccc(Cl)cc1)C(C#N)=C(N)O3 (stereo not drawn)	0.403 µM	14 µM	0.596 µM	11.4 µM	0.53 µM	11.1 µM	0.933 µM	22.2 µM	0.363 µM	2.6 µM	0.408 µM	9.59 µM	0.691 µM	13.4 µM	0.414 µM	31.8 µM	1.08 µM	14.7 µM	0.39 µM	10.7 µM
O=C1/C(=C/c2ccc3c(c2)OCO3)CCC1CN1CCOCC1 (stereo not drawn)		9.21 µM		29.6 µM		40.1 µM		28.8 µM		14.8 µM		14.5 µM		29.2 µM		5.42 µM		34.7 µM		4.49 µM
